# Legend:
# Format in all cases: physicochemical
# [1] = Drug level treated with umbelliprenin under sunlight in EtOH solution after 6 days by 1H-NMR analysis; conditions: 144 h
# [2] = Photochemical stability of the compound assessed as compound degradation under sunlight in EtOH solution measured after 24 hrs by HPLC analysis; conditions: read-out: Drug degradation
# [3] = Photochemical stability of the compound assessed as compound degradation under 254 nm UV-light exposure in EtOH solution measured after 24 hrs by HPLC analysis; conditions: read-out: Drug degradation
# [4] = Photochemical stability of the compound assessed as compound degradation under sunlight in EtOH solution measured after 4 days by HPLC analysis; conditions: read-out: Drug degradation
# [5] = Thermal stability of the compound assessed as compound degradation at 37 degC in EtOH solution after 48 hrs by HPLC analysis; conditions: read-out: Drug degradation
# [6] = Thermal stability of the compound assessed as compound degradation at 40 degC in EtOH solution after 48 hrs by HPLC analysis; conditions: read-out: Drug degradation
# [7] = Thermal stability of the compound at 37 degC in EtOH solution after 3 to 4 days by HPLC analysis
# [8] = Thermal stability of the compound at 40 degC in EtOH solution after 3 to 4 days by HPLC analysis
# [9] = Thermal stability of the compound assessed as compound degradation at 80 degC in EtOH solution measured up to 96 hrs by HPLC analysis; conditions: read-out: Drug degradation
# [10] = Stability of the compound assessed as compound degradation in 3% H2O2 solution at room temperature in EtOH solution after 24 hrs by HPLC analysis; conditions: 3% H2O2 solution in EtOH solution; read-out: Drug degradation
# [11] = Stability of the compound assessed as compound degradation in 3% H2O2 solution at 40 degC in EtOH solution after 24 hrs by HPLC analysis; conditions: 3% H2O2 solution in EtOH solution; read-out: Drug degradation
# [12] = Stability of the compound assessed as compound degradation in 3% H2O2 solution at room temperature in EtOH solution after 96 hrs by HPLC analysis; conditions: 3% H2O2 solution in EtOH solution; read-out: Drug degradation
# [13] = Stability of the compound assessed as compound degradation in 3% H2O2 solution at 40 degC in EtOH solution after 96 hrs by HPLC analysis; conditions: 3% H2O2 solution in EtOH solution; read-out: Drug degradation
# [14] = Stability of the compound assessed as compound degradation in 0.1 M NaOH solution at room temperature in EtOH solution after 96 hrs by HPLC analysis; conditions: 0.1 M NaOH solution in EtOH solution; read-out: Drug degradation
# [15] = Stability of the compound assessed as compound degradation in 0.1 M NaOH solution at 60 degC in EtOH solution after 96 hrs by HPLC analysis; conditions: 0.1 M NaOH solution in EtOH solution; read-out: Drug degradation
# [16] = Stability of the compound assessed as compound degradation in 0.1 M HCl solution at room temperature in EtOH solution after 96 hrs by HPLC analysis; conditions: 0.1 M HCl solution in EtOH solution; read-out: Drug degradation
# [17] = Stability of the compound assessed as compound degradation in 0.1 M HCl solution at 60 degC in EtOH solution after 24 hrs by HPLC analysis; conditions: 0.1 M HCl solution in EtOH solution; read-out: Drug degradation
# [18] = Photochemical stability of the compound assessed as compound degradation under sunlight using solid samples measured up to 96 hrs by HPLC analysis; conditions: read-out: Drug degradation
# [19] = Photochemical stability of the compound assessed as compound degradation under 254 nm UV-light exposure using solid samples measured up to 96 hrs by HPLC analysis; conditions: read-out: Drug degradation
# [20] = Thermal stability of the compound assessed as compound degradation at 37 to 80 degC using solid samples after 96 hrs by HPLC analysis; conditions: read-out: Drug degradation
# [21] = Stability of the compound assessed as compound degradation in 0.1 M NaOH solution at 60 to 80 degC using solid sample up to 96 hrs by HPLC analysis
# [22] = Stability of the compound assessed as compound degradation in 0.1 M HCl solution at 60 to 80 degC using solid sample up to 96 hrs by HPLC analysis; conditions: buffer
# [23] = Photostability of the compound assessed as parent compound remaining under sunlight exposed for 3 days in EtOH solution measured in presence of UV-A filter avobenzone by TLC method; conditions: read-out: Stability
# [24] = Photostability of the compound assessed as parent compound remaining under sunlight exposed for 3 days in EtOH solution measured in presence of UV-A filter DHHB by TLC method; conditions: read-out: Stability
# [25] = Photostability of the compound assessed as parent compound remaining under sunlight exposed for 3 days in EtOH solution measured in presence of UV-B filter octinoxate by TLC method; conditions: read-out: Stability
# [26] = Photostability of the compound assessed as parent compound remaining under sunlight exposed for 3 days in EtOH solution measured in presence of antioxidant DL-alpha-tocopherol acetate by TLC method; conditions: read-out: Stability
# [27] = Photostability of the compound assessed as parent compound remaining under sunlight exposed for 6 days in EtOH solution measured in presence of UV-A filter avobenzone by TLC method; conditions: read-out: Stability
# [28] = Photostability of the compound assessed as parent compound remaining under sunlight exposed for 6 days in EtOH solution measured in presence of UV-A filter DHHB by TLC method; conditions: read-out: Stability
# [29] = Photostability of the compound assessed as parent compound remaining under sunlight exposed for 6 days in EtOH solution measured in presence of UV-B filter octinoxate by TLC method; conditions: read-out: Stability
# [30] = Photostability of the compound assessed as parent compound remaining under sunlight exposed for 6 days in EtOH solution measured in presence of antioxidant DL-alpha-tocopherol acetate by TLC method; conditions: read-out: Stability
# [31] = Photostability of the compound assessed as parent compound remaining under sunlight exposed for 3 days in EtOH solution measured by TLC method; conditions: read-out: Stability
# [32] = Photostability of the compound assessed as parent compound remaining under sunlight exposed for 6 days in EtOH solution measured by TLC method; conditions: read-out: Stability
smiles,measurement,setting,value
CC(C)=CCC/C(C)=C/CC/C(C)=C/COc1ccc2c(c1)OC(=O)[C@@H]1[C@@H]3C(=O)Oc4cc(OC/C=C(\C)CC/C=C(\C)CCC=C(C)C)ccc4[C@@H]3[C@H]21,Drug metabolism,[1],Metabolite_Detected
C/C1=C\COc2ccc3c(c2)OC(=O)C2C3C(CC/C(C)=C/CC1)C2(C)C (stereo not drawn),Drug metabolism,[1],Metabolite_Detected
CC(C)=CCC/C(C)=C/CC/C(C)=C/COc1ccc2ccc(=O)oc2c1 [UMBELLIPRENIN],degraded at 24 h,[2],70.4%
same,degraded at 24 h,[3],25.8%
same,degraded at 96 h,[4],91.6%
same,degraded at 48 h,[5],1.8%
same,degraded at 48 h,[6],12.7%
same,Stability,[7],Unstable
same,Stability,[8],Unstable
same,degraded at 96 h,[9],34%
same,degraded at 24 h,[10],19.1%
same,degraded at 24 h,[11],39.4%
same,degraded at 96 h,[12],41.6%
same,degraded at 96 h,[13],50.1%
same,degraded at 96 h,[14],85%
same,degraded at 96 h,[15],85%
same,degraded at 96 h,[16],22.2%
same,degraded at 24 h,[17],> 95%
same,degraded at 96 h,[18],64.7%
same,degraded at 96 h,[19],59.4%
same,degraded at 96 h,[20],54.6 to 65.1%
same,Stability,[21],Stable
same,Stability,[22],Stable
same,remaining at 72 h,[23],97%
same,remaining at 72 h,[24],100%
same,remaining at 72 h,[25],56%
same,remaining at 72 h,[26],32%
same,remaining at 144 h,[27],88%
same,remaining at 144 h,[28],98%
same,remaining at 144 h,[29],13%
same,remaining at 144 h,[30],10%
same,remaining at 72 h,[31],35%
same,remaining at 144 h,[32],9%

# Source: ChEMBL document CHEMBL4130412, “Characterization of the Degradation Profile of Umbelliprenin, a Bioactive Prenylated Coumarin of a Ferulago Species” (J Nat Prod, 2017)
